Test results from patent US20220213440A1, “DENDRITIC CELL IMMUNOTHERAPY” (BAYLOR COLLEGE OF MEDICINE, priority 2015, published 2022).

What was measured:
H2-DM^−/− DC = test: AIMp1 / sCTLA-4 secretion from H2-DM-/- DC loaded with class I peptide; format: cell-based, mouse
Description: FIGS. 3A-G: AIMp1/sCTLA-4 modulation is dependent upon binding of homologous class I and II peptide to MHC. (A) sCTLA-4 (right) and AIMp1 (left) western blots of wild type (top) and H2-DM^−/− (bottom) murine DC culture supernatants following single, homologous, or heterologous loading with SV mRNA and lysate. Representative experiment shown. (B) Densitometry quantitation of AIMp1/sCTLA-4 ratios of the data depicted in (a) over three independent experiments. Top panel: wild type DC. Bottom panel: H2-DM^−/− DC. […] (Glycine Pair: Class I=SEQ ID NO: 3, Class II=SEQ ID NO: 2; Methionine Pair: Class I=SEQ ID NO: 8, Class II=SEQ ID NO: 9) (F) Densitometric quantitation of the data presented in (e). […]
Preparation of Vaccine Materials, Loading of DC, and In vitro CoCulture—Seminal vesicle (SV) and prostate were harvested from 10 week old male mice and immediately frozen at −80° C. […] To generate mRNA, total RNA was isolated from homogenized tissue using Trizol reagent (Life Technologies, Carlsbad, Calif.) according to the manufacturer's instructions, and mRNA was isolated from total RNA using an Oligotex mRNA Maxi Kit (Qiagen, Valencia, Calif.) also according to the manufacturer's instructions. mRNA was quantitated with a Nanodrop spectrophotometer (Thermo Scientific) and integrity was verified by gel electrophoresis. […]

CD8^+ T-cells = test: In vitro co-culture of loaded mouse DC with splenocytes, T-cell populations; format: cell-based; settings: loaded H2-DM^−/− DC with wild type syngeneic splenocytes
Description: FIGS. 1A-F: Concurrent loading of antigenically related MHC Class I and II determinants promote TH1-polarization of mouse DC. […] This effect was abrogated by siRNA knockdown of AIMp1. Antigens were derived from the RAW264.7 cell line. Heterologous Class II antigens were derived from the 4T1 breast cancer cell line. Y-axis: fold change in IL-12p70 secretion from unloaded (UL) DC. […] Top panel: AIMp1 release following homologous loading with RAW264.7 antigenic determinants. Heterologous lysate derived from 4T1. Bottom panel: AIMp1 release following homologous loading with primary SV antigenic determinants. Heterologous lysate derived from primary prostate. […] Shown: sCTLA-4 release following homologous loading with RAW264.7 antigenic determinants. Heterologous lysate derived from 4T1. […] Data shown are indicative of typical AIMp1 knockdown of >70%. […] This effect was abrogated by treatment of homologously-loaded DC with AIMp1 siRNA. Heterologous lysate was primary prostate. […]
FIGS. 3A-G: AIMp1/sCTLA-4 modulation is dependent upon binding of homologous class I and II peptide to MHC. […] (B) Densitometry quantitation of AIMp1/sCTLA-4 ratios of the data depicted in (a) over three independent experiments. […] (Glycine Pair: Class I=SEQ ID NO: 3, Class II=SEQ ID NO: 2; Methionine Pair: Class I=SEQ ID NO: 8, Class II=SEQ ID NO: 9) (F) Densitometric quantitation of the data presented in (e). […]

[1] = system: AIMp1 and sCTLA-4 secretion from mouse DC; test: AIMp1 / sCTLA-4 Western blot of mouse DC culture supernatants; format: cell-based; settings: mouse DC (not shown), 1 μg/ml, absence of antigenic loading
Description: FIGS. 1A-F: Concurrent loading of antigenically related MHC Class I and II determinants promote TH1-polarization of mouse DC. […] This effect was abrogated by siRNA knockdown of AIMp1. Antigens were derived from the RAW264.7 cell line. Heterologous Class II antigens were derived from the 4T1 breast cancer cell line. Y-axis: fold change in IL-12p70 secretion from unloaded (UL) DC. […] Top panel: AIMp1 release following homologous loading with RAW264.7 antigenic determinants. Heterologous lysate derived from 4T1. Bottom panel: AIMp1 release following homologous loading with primary SV antigenic determinants. Heterologous lysate derived from primary prostate. […] Shown: sCTLA-4 release following homologous loading with RAW264.7 antigenic determinants. Heterologous lysate derived from 4T1. […] Data shown are indicative of typical AIMp1 knockdown of >70%. […] This effect was abrogated by treatment of homologously-loaded DC with AIMp1 siRNA. Heterologous lysate was primary prostate. Y-axis: fold change in total cell count in comparison to unloaded (UL) DC. […]
Quantitation of Western Blot Images—Western blot chemiluminescent signal was detected using a ChemiDoc XRS digital imaging system running Image Lab software Version 2.0.1 (Bio-Rad Laboratories, Hercules, Calif.). All Western blots were quantitated by densitometry of Ponceau S (Sigma-Aldrich) stained membranes. […]

[2] = system: sCTLA-4 and AIMp1 secretion from human DC; test: sCTLA-4 and AIMp1 western blots of human DC culture supernatants with TLR agonistic stimuli; format: cell-based; settings: 1 μg/ml, absence of antigenic loading

MRMATPLLM [H-2D^b CLIP]
AIMp1 release (H2-DM^−/− DC; SIINFEKL as control): Substantial AIMp1 release was observed in a dose-dependent fashion
sCTLA-4 secretion (H2-DM^−/− DC; dose-dependent): diminution of sCTLA-4 secretion
CD8^+CD25^+ T cells after coculture (CD8^+ T-cells): increase in CD8^+CD25^+ T cells

polyinosine-polycytidylic acid [poly(I:C)]
sCTLA-4 or AIMp1 secretion with TLR agonist [1]: Neither poly(I:C), LPS, flagellin, nor CpG-ODN altered sCTLA-4 or AIMp1 secretion
sCTLA-4 or AIMp1 secretion with TLR agonist [2]: Neither poly(I:C), LPS, flagellin, nor CpG-ODN altered sCTLA-4 or AIMp1 secretion

flagellin
sCTLA-4 or AIMp1 secretion with TLR agonist [1]: Neither poly(I:C), LPS, flagellin, nor CpG-ODN altered sCTLA-4 or AIMp1 secretion
sCTLA-4 or AIMp1 secretion with TLR agonist [2]: Neither poly(I:C), LPS, flagellin, nor CpG-ODN altered sCTLA-4 or AIMp1 secretion
